Results: the C3SDB collision cross section collection

conditions: [M+H]+; instrument: TW; calibrated with polyalanine and drug standards

Compound | collision cross section (N2)
CC(=O)OCC(=O)[C@@]12OC(C)(C)O[C@@H]1C[C@H]1[C@@H]3C[C@H](F)C4=CC(=O)C=C[C@]4(C)[C@@]3(F)[C@@H](O)C[C@@]12C [FLUOCINONIDE] | 229.9 Å²
O=C1OC2(c3ccc(O)cc3Oc3cc(O)ccc32)c2ccccc21 [FLUORESCEIN] | 172.3 Å²
CNCCC(Oc1ccc(C(F)(F)F)cc1)c1ccccc1 (stereo unspecified) [FLUOXETINE] | 174.5 Å²
CC1(C)O[C@@H]2C[C@H]3[C@@H]4C[C@H](F)C5=CC(=O)CC[C@]5(C)[C@H]4[C@@H](O)C[C@]3(C)[C@]2(C(=O)CO)O1 [FLURANDRENOLIDE] | 201.2 Å²
CC(C)n1c(/C=C/[C@@H](O)C[C@@H](O)CC(=O)O)c(-c2ccc(F)cc2)c2ccccc21 [FLUVASTATIN] | 200.6 Å²
Nc1nc(=O)c2nc(CNc3ccc(C(=O)N[C@@H](CCC(=O)O)C(=O)O)cc3)cnc2[nH]1 [FOLIC ACID] | 196.8 Å²
NCC1(CC(=O)O)CCCCC1 [GABAPENTIN] | 138.6 Å²
CC(C)=CCCC1(C)C=Cc2c(O)c3c(c(CC=C(C)C)c2O1)OC12C(=CCCC1C(C)(C)O[C@@]2(C/C=C(\C)C(=O)O)C(=O)O)C3=O (stereo partly specified) [GARCINOLIC ACID] | 245.7 Å²
CC(=O)O[C@@H]1C[C@H]2C(C)(C)C(=O)C=C[C@]2(C)[C@H]2CC[C@@]3(C)[C@H](c4ccoc4)OC(=O)[C@H]4O[C@]43[C@@]21C [GEDUNIN] | 205.7 Å²
O=c1c(-c2ccc(O)cc2)coc2cc(O)cc(O)c12 [GENISTEIN] | 156.5 Å²
O=C(OCC(O)CO)c1ccccc1Nc1ccnc2cc(Cl)ccc12 (stereo unspecified) [GLAFENINE] | 187.3 Å²
Cc1cnc(C(=O)NCCc2ccc(S(=O)(=O)NC(=O)NC3CCCCC3)cc2)cn1 [GLIPIZIDE] | 196.5 Å²
COc1ccc2c(c1)=NC1=C(C)NCCC=21 [HARMALINE] | 146.2 Å²
CC(=O)O[C@H]1CC[C@@]2(C)[C@@H](CC[C@@H]3[C@@H]2CC(=O)[C@]2(C)[C@@H]4[C@H](C[C@@H]32)O[C@]2(CC[C@@H](C)CO2)[C@H]4C)C1 [HECOGENIN ACETATE] | 223.4 Å²
C[C@@H]1O[C@@H](O[C@H]2[C@H](O[C@H]3CC[C@@]4(C)[C@@H](CC[C@]5(C)[C@@H]4CC=C4[C@@H]6CC(C)(C)CC[C@]6(C(=O)O[C@@H]6O[C@H](CO[C@@H]7O[C@H](CO)[C@@H](O[C@@H]8O[C@@H](C)[C@H](O)[C@@H](O)[C@H]8O)[C@H](O)[C@H]7O)[C@@H](O)[C@H](O)[C@H]6O)CC[C@]45C)[C@]3(C)CO)OC[C@H](O)[C@@H]2O)[C@H](O)[C@H](O)[C@H]1O [HEDERACOSIDE C] | 349.1 Å²
C=C1C(=O)O[C@@H]2C[C@@]3(C)CCC[C@H](C)C3=C[C@H]12 [HELENINE] | 149.5 Å²
O=C1C=C2CC3(O)COc4c(ccc(O)c4O)C3=C2C=C1O (stereo unspecified) [HEMATEIN] | 162.5 Å²
O=c1cc(-c2cc(O)c(O)c(O)c2)oc2cc(O)cc(O)c12 [HIERACIN] | 163.4 Å²
C/C=C1\[C@H]2C=C(C)C[C@]1(N)c1ccc(=O)[nH]c1C2 [HUPERZINE A] | 157.7 Å²
COc1ccc2c(c1OC)C(=O)O[C@@H]2[C@H]1c2cc3c(cc2CCN1C)OCO3 [HYDRASTINE (1R, 9S)] | 186.3 Å²
CC(=O)OCC(=O)[C@@]1(O)CC[C@H]2[C@@H]3CCC4=CC(=O)CC[C@]4(C)[C@H]3[C@@H](O)C[C@@]21C [HYDROCORTISONE ACETATE] | 196.1 Å²

Compound | collision cross section (N2)
CN1[C@@H]2CC[C@H]1CC(OC(=O)[C@H](CO)c1ccccc1)C2 (stereo partly specified) [HYOSCYAMINE] | 169.7 Å²
CC1Cc2ccccc2N1NC(=O)c1ccc(Cl)c(S(N)(=O)=O)c1 (stereo unspecified) [INDAPAMIDE] | 184.6 Å²
O=c1c(-c2cc(O)c(O)c(O)c2)coc2cc(O)c(O)c(O)c12 [IRIGENOL] | 166.5 Å²
CC(=O)OCC(=O)[C@@]1(O)CCC2C3CCC4=CC(=O)C=C[C@]4(C)[C@@]3(F)[C@@H](O)C[C@@]21C (stereo partly specified) [ISOFLUPREDNONE ACETATE] | 194.7 Å²
NNC(=O)c1ccncc1 [ISONIAZID] | 125.6 Å²
COc1cc(O)ccc1C(C)=O [ISOPEONOL] | 128.6 Å²
COc1c2ccoc2c(OC)c2oc(=O)ccc12 [ISOPIMPINELLIN] | 146.5 Å²
COc1ccc(-c2coc3c(OC)c(OC)cc(O)c3c2=O)cc1 [ISOTECTORIGENIN, 7-METHYL ETHER] | 171.9 Å²
C=C(C)[C@H]1CN[C@H](C(=O)O)[C@H]1CC(=O)O [KAINIC ACID] | 144.2 Å²
CC1(C)C[C@@H]2C(=O)CC[C@H]3O[C@]3(C)CC[C@H]21 [KOBUSONE] | 146.3 Å²
COc1ccc(-c2coc3cc(O)ccc3c2=O)c(O)c1O [KOPARIN] | 162.1 Å²
COc1c(O)cc2c(-c3ccccc3)cc(=O)oc2c1OC [KUHLMANNIN] | 165.6 Å²
CCCCS(=N)(=O)CC[C@H](N)C(=O)O (stereo partly drawn) [L-BUTHIONINE SULFOXIMINE] | 146.1 Å²
O=C(O)[C@H](O)[C@@H](O)[C@H](O[C@@H]1O[C@H](CO)[C@H](O)[C@H](O)[C@H]1O)[C@H](O)CO [LACTOBIONIC ACID] | 168.7 Å²
C[C@@H]1CC[C@H]2[C@](C)(CO)[C@@H](O)CC[C@]2(C)[C@@]12CC[C@@](CO)(CCO)O2 [LAGOCHILIN] | 171.2 Å²
Cc1occc(=O)c1O [LARIXINIC ACID] | 117.7 Å²
C=C[C@@](C)(O)CCC1C(=C)C[C@H](O)C2C(C)(C)CCCC12C (stereo partly specified) [LARIXOL] | 176.2 Å²
CC1=CC(=O)C2=C(C)CC[C@@H]3[C@H](OC(=O)[C@H]3C)[C@@H]12 [LEUCODIN] | 154.2 Å²
N[C@@H](Cc1ccc(O)c(O)c1)C(=O)O [LEVODOPA] | 145.4 Å²
CCOC(=O)N1CCC(=C2c3ccc(Cl)cc3CCc3cccnc32)CC1 [LORATADINE] | 185.8 Å²
C=C1C[C@H]2[C@@H]3C=C(C)C4=CC(=O)CC[C@]4(C)[C@H]3CC[C@]2(C)[C@@]1(OC(C)=O)C(C)=O [MELENGESTROL ACETATE] | 198.2 Å²

same assay, conditions: [M+Na]+; instrument: TW; calibrated with polyalanine and drug standards

Compound | collision cross section (N2)
CC(=O)O[C@H]1C[C@@]2(C)[C@@H](C[C@@H](O)[C@H]3[C@@]4(C)CC[C@@H](O)[C@@H](C)[C@@H]4CC[C@@]32C)/C1=C(\CCC=C(C)C)C(=O)O [FUSIDIC ACID] | 235.6 Å²
CC(C)(C#N)O[C@@H]1O[C@H](CO)[C@@H](O)[C@H](O)[C@H]1O [LINAMARIN] | 157.3 Å²
CC[C@H](C)C(=O)O[C@H]1C[C@@H](C)C=C2C=C[C@H](C)[C@H](CC[C@@H]3C[C@@H](O)CC(=O)O3)[C@H]21 [LOVASTATIN] | 202 Å²
OC[C@H]1O[C@@](CO)(O[C@H]2O[C@H](CO)[C@@H](O)[C@H](O)[C@H]2O)[C@@H](O[C@H]2O[C@H](CO)[C@@H](O)[C@H](O)[C@H]2O)[C@@H]1O [MELEZITOSE] | 199.2 Å²
